Experimental findings from patent US4061540A, “Cholesterol oxidaze and process for preparing same” (Kikkoman Shoyu Co., Ltd., priority 1975, dated 1977) are described below.

The subject of data set [1] is cholesterol oxidase. Nature of the data set: Action and substrate specificity: relative activity by hydrogen peroxide formation (peroxidase/4-aminoantipyrine/phenol, absorbance at 500 nm). The data set is classed as biochemical, Corynebacterium cholesterolicum. As for the experimental part:
All the above-mentioned values of relative activity (%) refer to the relative amounts of hydrogen peroxide formed from the substances oxidized by cholesterol oxidase, where the activity to cholesterol is taken as 100. The activity was measured by the following procedure.
A substrate solution was prepared by mixing 50 microliter of a 0.38 micromolar solution of cholesterol in isopropanol with 3 milliliter of 0.1 M phosphate buffer (pH 7.0; it contains 0.82 millimoles of 4-aminoantipyrine, 14 millimoles of phenol, 0.17 millimoles of Carbowax 6000 and 0.3% Triton X-100). The resulting substrate solution was incubated for 5 minutes in a cell of light path, 10 mm, kept at 37° C.
50 microliter of an enzyme solution containing 2.5 U of peroxidase and 0.1 U of cholesterol oxidase was added. The increase in absorbance at 500 nm was measured at 37° C. The initial velocity was obtained from the increase in absorbance, from which the relative activity was computed. [Literature: Charles C. Allain, Lucy S. Poon, Cicely G. Chan, W. Richmond and Paul C. Fu, Clin. Chem. 20, 470 (1974)].

The test system of data set [2] is cholesterol oxidase. The data set is described as follows: Inhibition of the enzyme. The data set is classed as biochemical, Corynebacterium cholesterolicum.
Data set [3] can be described thus: Relative activities of various enzymes exhibited to pregnenolone and cholesterol. The data set is classed as biochemical. The conditions noted are these: ratio of activity to pregnenolone over cholesterol; source of values for known enzymes not stated. From the text:
This enzyme oxidizes the hydroxyl group of steroids at […], and exerts no action upon other position of hydroxyl groups, such as 3α, 17β, etc., nor upon ester groups.

Data set [4] can be described thus: Optimum pH and optimum temperature for the action of the enzyme. The data set is classed as biochemical. As for the experimental part:
The optimum pH is in the vicinity of 7.0 when the substrate is cholesterol.
When the reaction time is 15 minutes, the optimum temperature is 40° C.
(§1) Enzymatic activity was measured by ultraviolet absorption method [Clin. Chem. 20, 470 (1974)]. A substrate solution was prepared by dissolving 5 ml of a 300 mg/dl solution of cholesterol in isopropanol into 300 ml of phosphate buffer (pH 7.0) containing 0.05% of Triton X-100. 20 microliter of enzyme solution was added to 3.0 ml of the substrate solution, and the resulting mixture was reacted at 37° C for 15 minutes. Increase in the absorption at 240 nm, assignable to cholest-4-en-3-one resulting from the reaction, was measured.

Data set [5] is classed as physicochemical. The following applies: treated at 30° C for 1 hour. On the procedure:
It keeps stable in the pH range of 5-9 when treated at 30° C for 1 hour.

A short description of data set [6]: Isoelectric point by isoelectric focusing. The data set is classed as physicochemical. The conditions noted are these: pH, carrier ampholyte pH 3-10, 900 V, 50 hours, 4° C. On the procedure: The enzyme has an isoelectric point of pH 8.7, as measured by the method of isoelectric focusing. Thus, 10 mg of a purified enzyme was introduced into a 110 ml column packed with a carried ampholyte kept at pH 3-10 [LKB-Producter, commercial name of a product manufactured by AB Co.; cf. Biochem. Biophys. Acta, 133, 435 (1967)]. An electric current was passed at a voltage of 900 V for a period of 50 hours, while the column was cooled to 4° C.

The test system of data set [7] is cholesterol oxidase. Nature of the data set: Km value by the ultraviolet absorption method. The data set is classed as biochemical, Corynebacterium cholesterolicum. On the procedure:
as §1

[8] abbreviates: relative amounts of hydrogen peroxide formed, activity to cholesterol taken as 100, initial velocity, 37° C, pH 7.0.

Consider `CC[C@H](/C=C/[C@@H](C)[C@H]1CC[C@H]2[C@@H]3CC=C4C[C@@H](O)CC[C@]4(C)[C@H]3CC[C@]12C)C(C)C` [Stigmasterol], for which the “Relative activity (%)” value in the data set with cholesterol oxidase [1] (setting [8]) turned out to be 17%.
Regarding `O=C(O)CN(CCN(CC(=O)O)CC(=O)O)CC(=O)O` [EDTA], the “Inhibition of the enzyme (in words)” value in the data set on cholesterol oxidase [2] is on record as “not inhibited”.
On to `C=C1CC[C@H](O)C/C1=C/C=C1\CCC[C@]2(C)[C@@H]([C@H](C)CCCC(C)C)CC[C@@H]12` [Vitamin D3], for which, in the data set on cholesterol oxidase [1] (setting [8]), the “Relative activity (%)” value is 0%.
In the case of `C[C@]12CC[C@@H]3c4ccc(O)cc4CC[C@H]3[C@@H]1CC[C@@H]2O` [β-Estradiol], the “Relative activity (%)” value in the data set on cholesterol oxidase [1] (setting [8]) is 0%.
On the same count and under the same terms, the value for `C[C@]12CC[C@H](O)C[C@H]1CC[C@@H]1[C@@H]2CC[C@]2(C)[C@@H](C3=CC(=O)OC3)CC[C@]12O` [Digitoxigenin] was 0%; that for `CC(=O)O[C@H]1CC[C@@]2(C)C(=CC[C@H]3[C@@H]4CC[C@H]([C@H](C)CCCC(C)C)[C@@]4(C)CC[C@@H]32)C1` [Cholesterol acetate] was 0%; that for `C[C@H](CCC(=O)O)[C@H]1CC[C@H]2[C@@H]3[C@H](O)C[C@@H]4C[C@H](O)CC[C@]4(C)[C@H]3C[C@H](O)[C@]12C` [Cholic acid] was 0%.
The same measure, in the same setting: to `CC[C@H](CC[C@@H](C)[C@H]1CC[C@H]2[C@@H]3CC=C4C[C@@H](O)CC[C@]4(C)[C@H]3CC[C@]12C)C(C)C` [β-Sitosterol] belongs 54%.
On the same count and under the same terms, to `C[C@]12CC[C@H]3[C@@H](CCC4=CC(=O)CC[C@@]43C)[C@@H]1CC[C@@H]2O` [Testosterone] belongs 0%.
For `C[C@]12CC[C@H](O)CC1=CC[C@@H]1[C@@H]2CC[C@]2(C)C(=O)CC[C@@H]12` [Dehydro-epiandrosterone], in the data set with cholesterol oxidase [1] (setting [8]), the “Relative activity (%)” value is 57%.
As to cholesterol oxidase, the “relative activities exhibited to pregnenolone and cholesterol” value in data set [3] was 4.16. Besides, the “optimum temperature for the action” value in data set [4] (reaction time 15 minutes) worked out at 40 °C. Moreover, the “Optimum pH” value in data set [4] (substrate is cholesterol) is around 7.0. The “pH range in which it keeps stable” value in data set [5] is recorded as 5-9. For the same compound, the isoelectric point in data set [6] worked out at 8.7.
In the case of `O=C(O)c1cc[c]([Hg][Cl])cc1` [p-chloromercuribenzoate], the “Inhibition of the enzyme (in words)” value in the data set with cholesterol oxidase [2] is given as “inhibited”.
`C[C@@H]1CC[C@@]2(OC1)O[C@H]1C[C@H]3[C@@H]4CC=C5C[C@@H](O)CC[C@]5(C)[C@H]4CC[C@]3(C)[C@H]1[C@@H]2C` [Diosgenin]: the “Relative activity (%)” value in the data set with cholesterol oxidase [1] (setting [8]) came to 0%.
Consider `CC(=O)[C@H]1CC[C@H]2[C@@H]3CC=C4C[C@@H](O)CC[C@]4(C)[C@H]3CC[C@]12C` [Pregnenolone], for which the “Relative activity (%)” value in the data set with cholesterol oxidase [1] (setting [8]) is recorded as 416%. The Michaelis constant (Km) in the data set with cholesterol oxidase [7] was found to be 31 µM.
Consider `C[C@]12CC[C@@H](O)C[C@@H]1CC[C@@H]1[C@@H]2CC[C@]2(C)C(=O)CC[C@@H]12` [Androsterone], for which the “Relative activity (%)” value with cholesterol oxidase [1] (pH 7) was 0%.
For the compound `CC(C)CCC[C@@H](C)[C@H]1CC[C@H]2[C@@H]3CC[C@H]4C[C@@H](O)CC[C@]4(C)[C@H]3CC[C@]12C` [β-Cholestanol], in the data set with cholesterol oxidase [1] (setting [8]), the “Relative activity (%)” value was found to be 43%.
On to `[Ag+]` [Ag^+], for which the “Inhibition of the enzyme (in words)” value in the data set with cholesterol oxidase [2] is recorded as “inhibited”.
Turning to `CC(C)CCC[C@@H](C)[C@H]1CC[C@H]2[C@@H]3CC=C4C[C@@H](O)CC[C@]4(C)[C@H]3CC[C@]12C` [Cholesterol], the “Relative activity (%)” value in the data set with cholesterol oxidase [1] (setting [8]) came to 100%. Moreover, the Km with cholesterol oxidase [7] is 54 µM.
`CC(C)[C@@H](C)/C=C/[C@@H](C)[C@H]1CC[C@H]2C3=CC=C4C[C@@H](O)CC[C@]4(C)[C@H]3CC[C@]12C` [Ergosterol]: the “Relative activity (%)” value in the data set with cholesterol oxidase [1] (setting [8]) worked out at 13%.
Regarding `c1cnc2c(c1)ccc1cccnc12` [o-phenanthroline], in the data set on cholesterol oxidase [2], the “Inhibition of the enzyme (in words)” value is recorded as “not inhibited”.
For `[Hg+2]` [Hg^2+], in the data set with cholesterol oxidase [2], the “Inhibition of the enzyme (in words)” value is recorded as “inhibited”.
Consider `Oc1cccc2cccnc12` [8-hydroxyquinoline], for which the “Inhibition of the enzyme (in words)” value with cholesterol oxidase [2] is reported as “not inhibited”.

A word on the Km: it is the concentration of substrate that gives half-maximal velocity.
